The results in this text go back to US10590086B2, “Pharmaceutical compound” (IOmet Pharma Ltd., priority 2014, dated 2020).

Molecules are shown by their SMILES. Some results are limits rather than exact numbers.

One test addresses TDO (Homo sapiens, UniProt P48775). Put plainly: A172 kynurenine cell-based assay. The arrangement: This assay utilised cancer cells which expressed either TDO or IDO; endogenous in cells; host or cells: A172 (human glioblastoma). To be noted: A172 human glioblastoma cells, 48 hours, 500 μM L-tryptophan; read-out: A172 Kynurenine cell based assay pIC50 (converted). In outline:
(§1)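 First, A172 or SKOV3 cells were seeded in phenol red-free RPMI, 10% FCS, 2 mM L-glutamine, 500 μM L-tryptophan; SKOV3 received 500 ng/ml IFN-γ for IDO induction. Next came compound exposure, 48 hours, 37° C. Finally, cells were spun out, supernatant treated with Erhlich's reagent, absorbance read at 490 nm.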

Test [1] deals with T1, IDO (Homo sapiens, UniProt P14902). The experiment in a line: hIDO biochemical coupled assay. To be noted: 45 μM L-tryptophan, 17 minutes, room temperature; read-out: hIDO biochemical assay pIC50 (converted).
Excerpt: Two different assays were employed: 1. a cell-based assay for detecting the effect of test compounds on kynurenine production in two different cancer cell types. This assay utilised cancer cells which expressed either TDO or IDO and as such was used as a means of testing compound activity at these two enzymes in a cell-based context. 2. a TDO and IDO biochemical coupled assay which utilised recombinantly produced and purified TDO and IDO enzymes in combination with the enzyme formamidase. This coupled enzyme system allowed conversion of N-formylkynurenine produced by TDO or IDO activity to kynurenine which was then quantified by fluorescence following addition of Erhlich's Reagent The protocols for these are set out below.
In test [2] the target is T1, IDO. Put plainly: SKOV3 kynurenine cell-based assay (IDO induced by IFN-γ). Further details: IDO expression was induced in the SKOV3 cells by the addition of 500 ng/ml IFN-γ; endogenous in cells; host or cells: SKOV3 (human ovarian adenocarcinoma), induced with IFN-γ. To be noted: SKOV3 human ovarian adenocarcinoma cells, 500 ng/ml IFN-γ, 48 hours, 500 μM L-tryptophan; read-out: SKOV3 Kynurenine cell based assay pIC50 (converted). In outline:
as §1

Sequence of TDO (P48775 whole entry): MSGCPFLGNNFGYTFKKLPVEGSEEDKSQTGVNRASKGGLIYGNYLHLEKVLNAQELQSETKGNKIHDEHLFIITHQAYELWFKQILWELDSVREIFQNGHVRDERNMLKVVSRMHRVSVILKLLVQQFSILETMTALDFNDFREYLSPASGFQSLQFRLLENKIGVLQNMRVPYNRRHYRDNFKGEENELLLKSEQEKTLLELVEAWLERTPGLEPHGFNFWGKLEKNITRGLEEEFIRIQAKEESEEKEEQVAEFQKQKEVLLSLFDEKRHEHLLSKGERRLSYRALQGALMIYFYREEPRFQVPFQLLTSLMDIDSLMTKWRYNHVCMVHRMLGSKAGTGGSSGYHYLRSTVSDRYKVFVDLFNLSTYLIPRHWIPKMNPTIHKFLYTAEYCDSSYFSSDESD
T1 sequence (P14902 whole entry): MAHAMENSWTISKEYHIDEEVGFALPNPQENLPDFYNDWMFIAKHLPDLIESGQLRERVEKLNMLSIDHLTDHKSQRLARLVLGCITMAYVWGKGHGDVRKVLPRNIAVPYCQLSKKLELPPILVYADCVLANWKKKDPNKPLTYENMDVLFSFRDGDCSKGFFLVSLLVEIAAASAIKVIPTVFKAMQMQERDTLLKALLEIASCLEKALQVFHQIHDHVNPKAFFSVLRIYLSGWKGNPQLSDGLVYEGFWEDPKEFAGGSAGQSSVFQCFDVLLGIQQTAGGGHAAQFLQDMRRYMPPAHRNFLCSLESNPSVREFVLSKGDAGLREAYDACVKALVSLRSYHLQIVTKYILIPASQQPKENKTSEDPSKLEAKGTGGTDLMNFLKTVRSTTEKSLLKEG

Consider `OC(c1cc(Cl)cc2[nH]ncc12)C1CCCCC1` (stereo not drawn) [Compound 293], for which the IC50 at TDO was less than 3.16 µM; at IDO [1], greater than 100 µM; on IDO [2], 32.4 to 100 µM.
In the same order, the values of `O=C(O)c1ccc(-c2cc(Cl)cc3[nH]ncc23)cc1` [Compound 253] are less than 3.16 µM, greater than 100 µM and greater than 100 µM.
For `Cc1cc(-c2cc(Cl)cc3[nH]ncc23)ccc1S(C)(=O)=O` [Compound 254], in that order: less than 3.16 µM, 32.4 to 100 µM and 3.24 to 31.6 µM.
For `CC(=O)N1CCC(c2cc(OC(F)(F)F)cc3[nH]ncc23)CC1` [Compound 275], in that order: 32.4 to 100 µM, greater than 100 µM and 32.4 to 100 µM.
On to `O=C1NC2(CCO1)CCN(c1cc(Cl)cc3[nH]ncc13)CC2` [Compound 224], for which the results for the IC50 on TDO, at IDO [1] and at IDO [2] were less than 3.16 µM, 32.4 to 100 µM and 32.4 to 100 µM, respectively.
Consider `CC(=O)N1CCC(c2cc(C(C)C)cc3[nH]ncc23)CC1` [Compound 222], for which the IC50 is 3.24 to 31.6 µM at TDO, 3.24 to 31.6 µM on IDO [1] and 32.4 to 100 µM at IDO [2].
Turning to `O=C1NCC2CN(c3cc(Cl)cc4[nH]ncc34)CCN12` (stereo not drawn) [Compound 88], the IC50 is less than 3.16 µM on TDO and 3.24 to 31.6 µM at IDO [2].
As for `O=C1NCCC12CCN(c1cc(Cl)cc3[nH]ncc13)CC2` [Compound 189], the IC50 at TDO and at IDO [2] was 3.24 to 31.6 µM in each case.
For `CN1C(=O)NC(=O)C12CCN(c1cc(Cl)cc3[nH]ncc13)CC2` [Compound 184], the IC50 on TDO is less than 3.16 µM; at IDO [2], 3.24 to 31.6 µM.
With `CC(=O)N1CCN(c2cccc3[nH]ncc23)CC1C` (stereo not drawn) [Compound 27], the IC50 at TDO was 3.24 to 31.6 µM; on IDO [2] it was 32.4 to 100 µM.
In the same order, the values of `CN(C1CCN(c2cc(Cl)cc3[nH]ncc23)CC1)S(C)(=O)=O` [Compound 117] are less than 3.16 µM and 3.24 to 31.6 µM.
Turning to `C[C@@H]1CN(S(C)(=O)=O)CCN1c1cc(Cl)cc2[nH]ncc12` [Compound 197], the results for the IC50 at TDO and on IDO [2] were less than 3.16 µM and 3.24 to 31.6 µM, respectively.
In the same order, the values of `CC(=O)N1CCC(c2cc(C(F)(F)F)cc3[nH]ncc23)CC1` [Compound 99] are less than 3.16 µM and 3.24 to 31.6 µM.
In the same order, the values of `CS(=O)(=O)N1CCN(c2cc(Br)cc3[nH]ncc23)CC1` [Compound 96] are less than 3.16 µM and 3.24 to 31.6 µM.
Regarding `CC1(C)CC(c2cc(Cl)cc3[nH]ncc23)CCN1S(C)(=O)=O` (stereo not drawn) [Compound 175], the IC50 is less than 3.16 µM at TDO and 3.24 to 31.6 µM on IDO [2].
In the same order, the values of `O=C(CO)N1CCC(c2cc(Cl)cc3[nH]ncc23)CC1` [Compound 167] are less than 3.16 µM and 3.24 to 31.6 µM.
For `CS(=O)(=O)NC1CCC(c2cc(Cl)cc3[nH]ncc23)CC1` (stereo not drawn) [Compound 203], in that order: less than 3.16 µM and 3.24 to 31.6 µM.
In the same order, the values of `CS(=O)(=O)N1CC=C(c2cc(Cl)cc3[nH]ncc23)CC1` [Compound 77] are less than 3.16 µM and 3.24 to 31.6 µM.
Turning to `O=S(=O)(CC(F)(F)F)N1CCN(c2cccc3[nH]ncc23)CC1` [Compound 18], the IC50 at TDO is 32.4 to 100 µM; at IDO [2], greater than 100 µM.
For `CC1CN(c2cccc3[nH]ncc23)CCN1S(C)(=O)=O` (stereo not drawn) [Compound 29], in that order: 3.24 to 31.6 µM and 32.4 to 100 µM.
In the same order, the values of `CN1CCN(c2cc(Cl)cc3[nH]ncc23)CC1` [Compound 95] are 3.24 to 31.6 µM and greater than 100 µM.
In the same order, the values of `CC(=O)N1CCN(c2cc(Br)cc3[nH]ncc23)CC1` [Compound 76] are less than 3.16 µM and 3.24 to 31.6 µM.
Regarding `CS(=O)(=O)N1CCC(c2cc(C(F)(F)F)cc3[nH]ncc23)CC1` [Compound 100], the IC50 at TDO is less than 3.16 µM; on IDO [2] it was 3.24 to 31.6 µM.
In the same order, the values of `CC(C)C(=O)N1CCN(c2cc(Cl)cc3[nH]ncc23)CC1` [Compound 108] are less than 3.16 µM and 3.24 to 31.6 µM.
In the case of `CS(=O)(=O)N1CCC(Oc2cccc3[nH]ncc23)CC1` [Compound 52], the IC50 was 3.24 to 31.6 µM at TDO and 32.4 to 100 µM on IDO [2].
In the same order, the values of `C[C@@H]1CN(c2cc(Cl)cc3[nH]ncc23)C[C@H](C)N1S(C)(=O)=O` [Compound 134] are less than 3.16 µM and less than 3.16 µM.
For `O=C(N1CCN(c2cc(Cl)cc3[nH]ncc23)CC1)C1(O)CC1` [Compound 116], in that order: less than 3.16 µM and 3.24 to 31.6 µM.
For `CC(C)(O)C(=O)N1CCN(c2cc(Cl)cc3[nH]ncc23)CC1` [Compound 111], the IC50 at TDO was less than 3.16 µM; at IDO [2] it was 3.24 to 31.6 µM.
For `CC(=O)N1CCC(c2cccc3[nH]ncc23)CC1(C)C` (stereo not drawn) [Compound 190], the IC50 at TDO was less than 3.16 µM; on IDO [2], 3.24 to 31.6 µM.
In the same order, the values of `CC(=O)N1CC2CC1CN2c1cc(Cl)cc2[nH]ncc12` (stereo not drawn) [Compound 201] are 3.24 to 31.6 µM and 32.4 to 100 µM.
For `CS(=O)(=O)N1CCN(c2cc(-c3ccccc3)cc3[nH]ncc23)CC1` [Compound 33], in that order: 3.24 to 31.6 µM and 32.4 to 100 µM.
For `CC(O)c1cc(Cl)cc2[nH]ncc12` (stereo not drawn) [Compound 153], the IC50 on TDO was less than 3.16 µM; at IDO [2] it was 32.4 to 100 µM.
Regarding `CS(=O)(=O)N1CCN(c2cccc3c(N)noc23)CC1` [Compound 120], the values for the IC50 at TDO and on IDO [2] were greater than 100 µM and 3.24 to 31.6 µM, respectively.
In the same order, the values of `O=S(=O)(C1CCCC1)N1CCN(c2cc(Cl)cc3[nH]ncc23)CC1` [Compound 57] are less than 3.16 µM and 3.24 to 31.6 µM.
In the same order, the values of `CNCCNc1cc(Cl)cc2[nH]ncc12` [Compound 156] are 3.24 to 31.6 µM and 32.4 to 100 µM.
In the same order, the values of `CS(=O)(=O)N1CCN(c2cc(-c3ncco3)cc3[nH]ncc23)CC1` [Compound 157] are greater than 100 µM and 32.4 to 100 µM.
Take `CNC(=O)N1CCC(c2cc(Cl)cc3[nH]ncc23)CC1` [Compound 150]: the IC50 on TDO was less than 3.16 µM; on IDO [2], 3.24 to 31.6 µM.
For `CNS(=O)(=O)N1CCN(c2cc(Cl)cc3[nH]ncc23)CC1` [Compound 114], in that order: less than 3.16 µM and 3.24 to 31.6 µM.
In the case of `CS(=O)(=O)N1CCN(c2cc(N3CCCC3)cc3[nH]ncc23)CC1` [Compound 146], the results for the IC50 on TDO and on IDO [2] were 32.4 to 100 µM and greater than 100 µM, respectively.
In the same order, the values of `CN(C)C(=O)CN1CCN(c2cc(Cl)cc3[nH]ncc23)CC1` [Compound 65] are 3.24 to 31.6 µM and 32.4 to 100 µM.
Regarding `COCC(=O)N1CCC(c2cc(Cl)cc3[nH]ncc23)CC1` [Compound 176], the values for the IC50 at TDO and on IDO [2] were less than 3.16 µM and 3.24 to 31.6 µM, respectively.
In the same order, the values of `NS(=O)(=O)N1CCN(c2cccc3[nH]ncc23)CC1` [Compound 20] are 3.24 to 31.6 µM and 3.24 to 31.6 µM.
Turning to `CCCS(=O)(=O)N1CCN(c2cc(Cl)cc3[nH]ncc23)CC1` [Compound 63], the IC50 at TDO was less than 3.16 µM; at IDO [2], 3.24 to 31.6 µM.
In the same order, the values of `CS(=O)(=O)N1CCC(c2cc(C3CC3)cc3[nH]ncc23)CC1` [Compound 87] are less than 3.16 µM and 3.24 to 31.6 µM.
For `CS(=O)(=O)N1CCN(c2cc(C(F)(F)F)cc3[nH]ncc23)c2ccccc21` [Compound 186], in that order: greater than 100 µM and 3.24 to 31.6 µM.
